Measured values taken from the METLIN SMRT retention time set (Domingo-Almenara et al. 2019).

Test: gradient 5% acetonitrile 3 min, to 50% in 2 min, to 85% in 15 min, held 3 min, 100 µL/min
Details: column: Zorbax Extend-C18 2.1 x 50 mm; eluents: water / acetonitrile, 0.1% formic acid
In short: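 Retention times of pure standards were taken from adduct peaks that were selected by computer and manually inspected. Over 3 months, mixtures of ~100 molecules were run by HPLC–quadrupole time-of-flight mass spectrometry in positive and negative ionization mode. The Zorbax Extend-C18 column (2.1 × 50 mm, 1.8 μm) ran at 100 μL/min in water and acetonitrile, each containing 0.1% formic acid, with 40 μL dead volume and 900 μL dwell volume.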

Row | Compound | RP-LC retention time
1 | Cn1nc(-c2nc(C3CC3)no2)c2c1CCN(C(=O)c1cc3c(s1)CCCC3)C2 | 1010 s
2 | CC(C)CN1C(=O)c2ccccc2C(C(=O)NCCCN2CCN(C)CC2)C1c1cccs1 (stereo not given) | 607 s
3 | CCN1CCN(C(=O)Nc2cccc(C(=O)OC)c2)c2cccnc21 | 612 s
4 | CC(C)OCCCNC(=O)C1CCN(c2nc3cccnc3s2)CC1 | 659 s
5 | CC1CCC(NS(=O)(=O)c2ccc3c(c2)c(=O)n(CC(=O)N2CCCC2)c(=O)n3C)CC1 (stereo not given) | 834 s
6 | CCN(CC)CCNC(=O)c1cc(S(=O)(=O)N2CCCCCC2)ccc1Cl | 656 s
7 | Cc1cc2c(c(=O)n(-c3ccc(F)cc3)c(=O)n2CC(=O)Nc2cc(F)ccc2F)n1C | 875 s
8 | CC(C)Cn1c(=O)c2cc(C(=O)NCCCn3cccn3)nn2c2ccccc21 | 831 s
9 | COCC(C)(O)CNC(=O)c1ccc2nsnc2c1 (stereo not given) | 606 s
10 | COc1ccc2c(c1)C1(CCN(C(=O)Cc3ccccc3Cl)C1)C(=O)N2C (stereo not given) | 848 s
11 | COc1ccc(OC)c(CNC(=O)C2CCCN(c3ncnc4c3nc3n4CCCCC3)C2)c1 (stereo not given) | 746 s
12 | COC(=O)C1=CN(c2ccc(OC)c(Cl)c2)c2cc(F)ccc2S1(=O)=O | 914 s
13 | Cc1ccc(Cn2c(CN3CC(C)OC(C)C3)nc3c2c(=O)n(C)c(=O)n3C)cc1 (stereo not given) | 700 s
14 | Cc1cn2c(S(=O)(=O)N3CCCCC3)c(C(C)C)nc2s1 | 1020 s
15 | Cc1sc(NC(=O)c2ccc(S(=O)(=O)N(C)C)cc2)nc1-c1ccc2c(c1)NC(=O)CO2 | 842 s
16 | CNC(=O)N1CCC(C2CCN(C(=O)CCCC(=O)O)C2)CC1 (stereo not given) | 572 s
17 | Cc1ccc(-c2csc(Cc3nc(-c4cccc(F)c4)no3)n2)cc1C | 1360 s
18 | COc1ccc(Cl)cc1N1CC(c2nc(-c3ccncc3)no2)CC1=O (stereo not given) | 752 s
19 | CC(C)NC(=O)c1nc(N2CCSCC2)c2cnn(C)c2n1 | 705 s
20 | CCOC(=O)N1CCN(C(=O)CSc2nncn2C)CC1 | 560 s
21 | Cc1ccc(S(=O)(=O)n2nc(-c3cccc(C)c3)nc2N)cc1 | 957 s
22 | COc1ccc(S(=O)(=O)N2CCCn3ccnc3C2c2cnn(C)c2)cc1Cl (stereo not given) | 618 s
23 | COc1ccc(NC(=O)Cn2c(C)cc(-c3nnc(C4CCC4)o3)c2C)cc1OC | 796 s
24 | c1cc(-c2noc(C3CCCC3)n2)cc(N2CCOCC2)n1 | 872 s
25 | CC(C)Sc1nccn2nc(-c3cccs3)cc12 | 1280 s
26 | CC(=O)NCc1csc(C2CCCN(C(=O)c3cc(F)cc(F)c3)C2)n1 (stereo not given) | 684 s

Row | Compound | RP-LC retention time
27 | O=C(Nc1cccn2c(C3CCC3)nnc12)c1ccc(Cl)s1 | 871 s
28 | Cc1ccc(S(=O)(=O)NC(=O)Nc2nccs2)cc1 | 751 s
29 | CCOC(=O)Nc1nc2c(s1)CN(S(=O)(=O)N(C)C)CC2 | 670 s
30 | Cc1nn2c(S(=O)(=O)N3CCC(C)CC3)c(C)nc2s1 | 838 s
31 | O=C(NC1CCCC1)C1CCN(C(=O)C2Sc3ccccc3NC2=O)CC1 (stereo not given) | 697 s
32 | CCNC(=O)c1sc2nc(-c3cccc(F)c3)c(NCCOC)n2c1C | 800 s
33 | CCc1cc(C(=O)Nc2ccc(F)cc2)nc2ccnn12 | 997 s
34 | COCCCNC(=O)C1c2ccccc2C(=O)N1Cc1ccccc1F (stereo not given) | 708 s
35 | CCc1cc(-c2csc(S(=O)(=O)N3CC=C(c4ccccc4)CC3)c2)on1 | 1170 s
36 | CCOC(=O)c1ccc(NC(=O)C2CCN(S(=O)(=O)c3cn(CC)cn3)CC2)cc1 | 774 s
37 | c1ccc(-c2n[nH]c(-c3ccccn3)n2)nc1 | 645 s
38 | C=CCn1c(=O)c2ccccc2n(Cc2nc(-c3cc(OC)cc(OC)c3)no2)c1=O | 1020 s
39 | CCCCNc1nnc(-c2nnc(C)o2)c2ccccc12 | 637 s
40 | COc1ccccc1CNc1ncnc(N)c1[N+](=O)[O-] | 735 s
41 | COc1ccc(NC(=O)C2CC(=O)N(c3ccc4oc(C)nc4c3)C2)cc1Cl (stereo not given) | 742 s
42 | Cc1cc(C)cc(-c2nnc(Cc3nc(-c4ccccc4)no3)o2)c1 | 1130 s
43 | Cn1nc(C(=O)N2C[C@@H]3C[C@H](NC(=O)c4cccs4)[C@H]2C3)c2ccccc21 | 778 s
44 | Cc1cc(C)cc(NC(=O)N2CCC3(CC2)NC(=O)c2cc(F)ccc2N3C)c1 | 769 s
45 | Cc1ccc(C)c(NC(=O)CN(C)S(=O)(=O)c2cc(C(=O)N3CCC(C)CC3)n(C)c2)c1 | 924 s
46 | [O-]/[N+](=C\c1ccccc1)CC1(O)CCCCC1 | 798 s
47 | CC(C)NCc1ccc(-c2cc(Cl)ccc2Cl)o1 | 709 s
48 | CC(C)(C)c1ccc(-c2nc(-c3ccc(S(=O)(=O)N4CCOCC4)cc3)no2)cc1 | 1400 s
49 | O=C(Nc1nc(-c2ccc(F)cc2)cs1)C1CC1 | 884 s
50 | CCCn1nc(C)cc1CN(C)c1ccc(NC(=O)CC)cc1C(=O)O | 618 s
51 | O=C(Nc1ccc2c(c1)OCO2)C(=O)c1ccc[nH]1 | 802 s
52 | Brc1ccc(-c2ccc(CNc3ncn[nH]3)o2)cc1 | 708 s

Second part, the molecule after the results:

Row | RP-LC retention time | Compound
53 | 655 s | Cn1ncc2c3ccccc3n(CCCC(=O)NC3CCN(Cc4ccccc4)CC3)c2c1=O
54 | 868 s | Cc1cc(OCC(=O)NCc2ccc(Cl)cc2)nc(N2CCN(c3ccccc3)CC2)n1
55 | 829 s | CCc1noc2nc(CCC(=O)NCc3ccco3)nc(N3CCCCC3)c12
56 | 797 s | COc1cc(C)c(Cl)cc1S(=O)(=O)N1CCN(C(=O)c2ccco2)CC1
57 | 948 s | Cc1ccc2c(c1)cc(S(=O)(=O)c1ccccc1)c(=O)n2CC(=O)NCc1ccccc1Cl
58 | 1290 s | Cc1ccc(-c2noc(Cn3c(=O)n(Cc4ccccc4Cl)c(=O)c4sccc43)n2)cc1C
59 | 872 s | Cc1ccccc1-c1nnc(COc2ccc(NC(=O)c3ccoc3)cc2)o1
60 | 765 s | COc1ccc(-c2nc(N(C)Cc3ccco3)c3ccccc3n2)cc1
61 | 1320 s | COc1ccccc1N1CCN(c2ncccc2-c2nc(-c3ccc(Cl)cc3)no2)CC1
62 | 1040 s | Cc1ccccc1Nc1c(-c2cccc(Br)c2)nc2cnccn12
63 | 793 s | O=C(Nc1cnc(N2CCOCC2)nc1)c1cccc(Cl)c1
64 | 761 s | Cc1nn(C(C)C(=O)NCc2ccco2)c(=O)c2nn(-c3ccccc3)c(C)c12 (stereo not given)
65 | 599 s | CCOc1ccc2ncc(C(=O)c3ccc(OC)cc3)c(N3CCN(C)CC3)c2c1
66 | 763 s | COCCn1cc(CCNC(=O)Nc2ccccc2Br)c2cccnc21
67 | 706 s | O=C(Cc1ccc(F)cc1)NC1CCN(c2cc(-c3ccccc3)[nH]n2)C1 (stereo not given)
68 | 625 s | Cc1ccc(CN2CCC(CNS(=O)(=O)c3ccc4c(c3)CCCC(=O)N4)C2)cc1 (stereo not given)
69 | 863 s | CN(Cc1ccccc1)C(=O)C1CC(=O)N(CCc2c[nH]c3ccc(Cl)cc23)C1 (stereo not given)
70 | 758 s | O=C(Cc1ccc(Cl)cc1)N1CCC2(C1)C(=O)Nc1ccccc12 (stereo not given)
71 | 603 s | Cc1cc(=O)n(CC(=O)NCCn2nc(-c3ccc(F)cc3)ccc2=O)cn1

Row | RP-LC retention time | Compound
72 | 919 s | CCc1nc2ccccc2c(=O)n1Cc1noc(-c2ccccc2OC)n1
73 | 829 s | COc1ccc(N2CCN(C(=O)C3CCCN(c4nnc(-n5cccc5)s4)C3)CC2)cc1 (stereo not given)
74 | 616 s | COc1ccccc1-c1noc(CCc2nnc3ccc(N4CCN(Cc5ccccc5)CC4)nn23)n1
75 | 827 s | O=C1C(=O)N(C2CCN(S(=O)(=O)c3ccc(F)c(F)c3)CC2)CCN1Cc1ccccc1
76 | 721 s | Cc1nn(-c2cc(N3CCCC3)ncn2)c(C)c1CCC(=O)NCCc1ccco1
77 | 892 s | CC(=O)c1cccc(NC(=O)NC(c2ccccc2)c2nnc(-c3ccccc3)o2)c1 (stereo not given)
78 | 1120 s | Cc1nc2c(sc3nc(-c4ccccc4)ccc32)c(=O)n1CC(=O)Nc1ccc(Cl)cc1
79 | 625 s | O=C(CC1CCN(S(=O)(=O)c2ccccc2)CC1)N1CCN(c2ccccn2)CC1
80 | 759 s | O=S(=O)(Nc1ccc(Cn2cncn2)cc1)c1ccc2c(c1)CCC2
81 | 747 s | CC1=C(c2ccc(F)cc2)S(=O)(=O)N=C1N1CCC(NC(=O)c2ccoc2)CC1
82 | 1120 s | CCOc1ccc(-c2nc(CN(c3ccccc3)S(=O)(=O)c3cccs3)c(C)o2)cc1OC
83 | 728 s | COc1ccc(-n2ccn(CC(=O)Nc3ccc(Br)cc3)c(=O)c2=O)cc1
84 | 715 s | COc1cccc(NC(=O)N2CCC(n3c(-c4ccoc4)nc4cccnc43)C2)c1 (stereo not given)
85 | 768 s | COC(=O)c1cnn(-c2ccc(C(=O)N3CCc4ccccc43)cc2)c1N
86 | 738 s | Cc1ccc2nc(C(=O)N3CCN(c4ccc(Cl)cc4)CC3)cn2c1
87 | 906 s | Cc1c(Cl)cccc1NC(=O)Cn1nc(N(C)C)c2ccccc2c1=O
88 | 1010 s | O=C(Cc1csc2nc(-c3cccc(Br)c3)cn12)N1CCN(c2ccccc2)CC1
89 | 856 s | COC(=O)C1=CN(c2ccc(OC)c(Cl)c2)c2ccccc2S1(=O)=O
90 | 1060 s | O=c1ccc(-c2ccc(F)cc2)nn1CCc1nc(-c2ccc(Cl)cc2)no1
